Reference: patent publication US11944622B2 (Annapurna Bio, Inc., priority 2018, dated 2024)

Each compound was assayed against T1, APJ Receptor (Homo sapiens, UniProt P35414) (assay: APJ cAMP assay (DiscoverX enzyme fragment complementation; inhibition of forskolin-stimulated cAMP)). Conditions: CHO-K1 cell line stably expressing the APJ Receptor; EC80 forskolin; 30 minutes at 37° C.; read-out: Potency Range (APJ cAMP EC50).
T1 sequence (P35414 1-380): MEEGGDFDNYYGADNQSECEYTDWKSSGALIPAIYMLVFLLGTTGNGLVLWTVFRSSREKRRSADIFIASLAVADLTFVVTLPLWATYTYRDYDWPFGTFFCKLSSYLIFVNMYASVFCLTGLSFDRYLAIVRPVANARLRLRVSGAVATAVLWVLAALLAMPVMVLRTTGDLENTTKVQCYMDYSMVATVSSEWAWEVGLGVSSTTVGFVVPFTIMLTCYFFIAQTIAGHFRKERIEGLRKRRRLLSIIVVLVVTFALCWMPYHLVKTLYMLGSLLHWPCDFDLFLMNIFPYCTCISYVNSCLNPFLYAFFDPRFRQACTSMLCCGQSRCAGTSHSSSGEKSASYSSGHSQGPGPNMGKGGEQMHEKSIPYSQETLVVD
Format: cell-based
Procedure, shortened: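 CHO-K1 cells stably expressing APJ incubated with compound plus EC80 forskolin for 30 min at 37° C. cAMP detected by β-galactosidase enzyme fragment complementation with chemiluminescent read-out; % activity calculated relative to vehicle and maximal controls.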

SMILES | EC50
CCOc1cccc(-c2nc3nc(Cl)cnc3n2-c2c(OC)cccc2OC)n1 [Example 15, 5-chloro-1-(2,6-dimethoxyphenyl)-2-(6-ethoxypyridin-2-yl)-1H-imidazo[4,5-b]pyrazine] | 100 to 10000 nM
CCOc1cccc(-c2nc3nnc(NS(=O)(=O)Cc4ccc(F)cn4)cc3n2-c2c(OC)cccc2OC)n1 [Example 125, N-(7-(2,6-Dimethoxyphenyl)-8-(6-ethoxypyridin-2-yl)-7H-imidazo[4,5-c]pyridazinyl)-1-(5-fluoropyridin-2-yl)methanesulfonamide] | < 1 nM
CCOCc1nc2ncc(NS(=O)(=O)c3ccccc3)nc2n1-c1c(OC)cccc1OC [Example 57, N-(1-(2,6-dimethoxyphenyl)-2-(ethoxymethyl)-1H-imidazo[4,5-b]pyrazin-6-yl)benzenesulfonamide] | 100 to 10000 nM
CCOc1cccc(-c2nc3nc(OC4CC4)c(NS(C)(=O)=O)nc3n2-c2c(OC)cccc2OC)n1 [Example 89, N-(5-Cyclopropoxy-1-(2,6-dimethoxyphenyl)-2-(6-ethoxypyridin-2-yl)-1H-imidazo[4,5-b]pyrazin-6-yl)methanesulfonamide] | 100 to 10000 nM
CCOc1cccc(-c2nc3nc(Cl)c(NS(=O)(=O)Cc4ccc(F)cc4)nc3n2-c2c(OC)cccc2OC)n1 [Example 108, N-(5-Chloro-1-(2,6-dimethoxyphenyl)-2-(6-ethoxypyridin-2-yl)-1H-imidazo[4,5-b]pyrazin-6-yl)-1-(4-fluorophenyl)methanesulfonamide] | < 1 nM
CCOc1cccc(-c2nc3ncc(NS(=O)(=O)C4COC4)nc3n2-c2c(OC)cccc2OC)n1 [Example 30, N-(1-(2,6-dimethoxyphenyl)-2-(6-ethoxypyridin-2-yl)-1H-imidazo[4,5-b]pyrazin-6-yl)oxetane-3-sulfonamide] | 1 to 100 nM
CCOc1cccc(-c2nc3nc(NS(C)(=O)=O)c(Cl)nc3n2-c2c(OC)cccc2OC)n1 [Example 138, N-(6-Chloro-1-(2,6-dimethoxyphenyl)-2-(6-ethoxypyridin-2-yl)-1H-imidazo[4,5-b]pyrazin-5-yl)methanesulfonamide] | 1 to 100 nM
CCOc1cccc(-c2nc3ncc(NS(=O)(=O)Cc4ccc(F)cn4)nc3n2-c2c(OC)cccc2OC)n1 [Example 78, N-(1-(2,6-dimethoxyphenyl)-2-(6-ethoxypyridin-2-yl)-1H-imidazo[4,5-b]pyrazin-6-yl)-1-(5-fluoropyridin-2-yl)methanesulfonamide] | < 1 nM
CCOc1cccc(-c2nc3nc(Cl)c(NS(=O)(=O)C4CCOCC4)nc3n2-c2c(OC)cccc2OC)n1 [Example 111, N-(5-Chloro-1-(2,6-dimethoxyphenyl)-2-(6-ethoxypyridin-2-yl)-1H-imidazo[4,5-b]pyrazin-6-yl)tetrahydro-2H-pyran-4-sulfonamide] | 1 to 100 nM
CCOc1cccc(-c2nc3nc(Cl)c(NS(=O)(=O)N(C)C4CC4)nc3n2-c2c(OC)cccc2OC)n1 [Example 112, N-(5-Chloro-1-(2,6-dimethoxyphenyl)-2-(6-ethoxypyridin-2-yl)-1H-imidazo[4,5-b]pyrazin-6-yl)-N′-methyl-N′-cyclopropylsulfamide] | < 1 nM
CCOc1cccc(-c2nc3ncc(N(C)C)nc3n2-c2c(OC)cccc2OC)n1 [Example 12, 1-(2,6-dimethoxyphenyl)-2-(6-ethoxypyridin-2-yl)-N,N-dimethyl-1H-imidazo[4,5-b]pyrazin-6-amine] | 100 to 10000 nM
CCOc1cccc(-c2nc3ncc(NS(=O)(=O)c4cccnc4)nc3n2-c2c(OC)cccc2OC)n1 [Example 24, N-(1-(2,6-dimethoxyphenyl)-2-(6-ethoxypyridin-2-yl)-1H-imidazo[4,5-b]pyrazin-6-yl)pyridine-3-sulfonamide] | 1 to 100 nM
CCOc1cccc(-c2nc3ncc(NS(=O)(=O)[C@H]4CC[C@@H](O)CC4)nc3n2-c2c(OC)cccc2OC)n1 [Example 40, cis-N-(1-(2,6-dimethoxyphenyl)-2-(6-ethoxypyridin-2-yl)-1H-imidazo[4,5-b]pyrazin-6-yl)-4-hydroxycyclohexane-1-sulfonamide] | 1 to 100 nM
CCOc1cccc(-c2nc3ncc(NS(=O)(=O)N4CCOCC4)nc3n2-c2c(OC)cccc2OC)n1 [Example 37, N-(1-(2,6-dimethoxyphenyl)-2-(6-ethoxypyridin-2-yl)-1H-imidazo[4,5-b]pyrazin-6-yl)morpholine-4-sulfonamide] | < 1 nM
CCOc1cccc(-c2nc3nc(Cl)c(NS(=O)(=O)c4cccnc4)nc3n2-c2c(OC)cccc2OC)n1 [Example 104, N-(5-Chloro-1-(2,6-dimethoxyphenyl)-2-(6-ethoxypyridin-2-yl)-1H-imidazo[4,5-b]pyrazin-6-yl)pyridine-3-sulfonamide] | 1 to 100 nM
CCOc1cccc(-c2nc3ncc(N)nc3n2-c2c(OC)cccc2OC)n1 [Example 10, 1-(2,6-dimethoxyphenyl)-2-(6-ethoxypyridin-2-yl)-1H-imidazo[4,5-b]pyrazin-6-amine] | 1 to 100 nM
CCOc1cccc(-c2nc3ncc(NS(=O)(=O)N4CCC(O)CC4)nc3n2-c2c(OC)cccc2OC)n1 [Example 42, N-(1-(2,6-dimethoxyphenyl)-2-(6-ethoxypyridin-2-yl)-1H-imidazo[4,5-b]pyrazin-6-yl)-4-hydroxypiperidine-1-sulfonamide] | 1 to 100 nM
CCOc1cccc(-c2nc3nc(Cl)c(NS(=O)(=O)c4ccccn4)nc3n2-c2c(OC)cccc2OC)n1 [Example 102, N-(5-Chloro-1-(2,6-dimethoxyphenyl)-2-(6-ethoxypyridin-2-yl)-1H-imidazo[4,5-b]pyrazin-6-yl)pyridine-2-sulfonamide] | 1 to 100 nM
CCOc1cccc(-c2nc3nc(CO)c(NS(C)(=O)=O)nc3n2-c2c(OC)cccc2OC)n1 [Example 140, N-(1-(2,6-Dimethoxyphenyl)-2-(6-ethoxypyridin-2-yl)-5-(hydroxymethyl)-1H-imidazo[4,5-b]pyrazin-6-yl)methanesulfonamide] | 1 to 100 nM
CC#CCS(=O)(=O)Nc1nc2c(nc1Cl)nc(-c1cccc(OCC)n1)n2-c1c(OC)cccc1OC [Example 110, N-(5-Chloro-1-(2,6-dimethoxyphenyl)-2-(6-ethoxypyridin-2-yl)-1H-imidazo[4,5-b]pyrazin-6-yl)but-2-yne-1-sulfonamide] | < 1 nM
CCOc1cccc(-c2nc3nc(N)cnc3n2-c2c(OC)cccc2OC)n1 [Example 16, 1-(2,6-dimethoxyphenyl)-2-(6-ethoxypyridin-2-yl)-1H-imidazo[4,5-b]pyrazin-5-amine] | 1 to 100 nM
CCOc1cccc(-c2nc3nc(Cl)c(NS(=O)(=O)c4ccc(CF)cc4)nc3n2-c2c(OC)cccc2OC)n1 [Example 103, N-(5-Chloro-1-(2,6-dimethoxyphenyl)-2-(6-ethoxypyridin-2-yl)-1H-imidazo[4,5-b]pyrazin-6-yl)-4-(fluoromethyl)benzenesulfonamide] | < 1 nM
COc1cccc(OC)c1-n1c(-c2cncc(C)c2)nc2ncc(NS(=O)(=O)C3CC3)nc21 [Example 133, N-(1-(2,6-dimethoxyphenyl)-2-(5-methylpyridin-3-yl)-1H-imidazo[4,5-b]pyrazin-6-yl)cyclopropanesulfonamide] | 100 to 10000 nM
COc1cccc(-c2nc3ncc(NS(C)(=O)=O)nc3n2-c2c(OC)cccc2OC)n1 [Example 51, N-(1-(2,6-dimethoxyphenyl)-2-(6-methoxypyridin-2-yl)-1H-imidazo[4,5-b]pyrazin-6-yl)methanesulfonamide] | 1 to 100 nM
CCOc1cccc(-c2nc3nc(CC4CCC4)c(NS(C)(=O)=O)nc3n2-c2c(OC)cccc2OC)n1 [Example 88] | < 1 nM
